From patent US20060293335A1 (priority 2002, published 2006)
Where two headings read alike, the source gives them in different places. One block for each compound: values may come before it.

Tests used:
[1] = system: blood glutathione reductase activity coefficient (BGRAC)
[2] = for urinary riboflavin excretion: i.m., riboflavin-free diet
[3] = not given; remark: listed apart in the source
[4] = system: oral ulcer after chemotherapy
Experimental: 35 cases of acute lymphocytic leukemia and 13 cases of acute nonlymphocytic leukemia (6 M2 cases, 3 M3 cases, 2 M4 cases and 2 M5 cases) were also included.
Treatment: Regular chemotherapies, such as CODPL, HDMTX, DA were adopted. Other chemotherapies regimens were not listed. Tetrahydrofolate folic calcium was used to against the toxicity of HDMTX (hige-dose MTX). Hydration and alkalinizing of urine were performed in all patients by Dobll's solution. 5% NaHCO3 and 3% peroxide hydrogen were used to rinse the mouth alternatively.

Male wistar Rats = conditions: medium and high LRM injected
Experimental: 60 Wistar rats weighing 64.5±4.6 g were used in the experiment. […] The rats were weighed every 6 days. […] The blood glutathione reductase activity coefficient (BGRAC) was measured.

[5] = system: oral ulcer after bone marrow transplantation; conditions: 28 leukemia cases with bone marrow transplantation; 150 mg LRM injected
Experimental: 28 cases of leukemia with bone marrow transplantation were recruited. 150 mg LRM was injected for prevention of catarrh.

[6] = day 15, medium dosage (5.01 g for 90 days per rat as printed; riboflavin group same dosage)
[7] = day 30, medium dosage (riboflavin group same dosage)
[8] = day 60, medium dosage (riboflavin group same dosage)
[9] = day 90, medium dosage (riboflavin group same dosage)

urinary riboflavin excretion [2, 6]: 4.0 ± 1.4 μg per rat per day
urinary riboflavin excretion [2, 7]: 7.8 ± 1.6 μg per rat per day
urinary riboflavin excretion [2, 8]: 4.5 ± 0.9 μg per rat per day
urinary riboflavin excretion [2, 9]: 4.2 ± 0.9 μg per rat per day
Compound: Cc1cc2nc3c(=O)[nH]c(=O)nc-3n(C[C@H](O)[C@H](O)[C@H](O)CO)c2cc1C [Riboflavin, riboflavin, reference compound]
food intake (riboflavin group (FIG. 1)): did not drop until 25 days later and still more than that in the riboflavin deficiency group
BGRAC, course and comparison ([1]; riboflavin group, during the first 30 days (FIG. 3)): gradually increased and significantly higher than that in the LRM groups and lower than that in the riboflavin deficiency group

riboflavin content in plasma, course ([3]; high dosage LRM group (FIG. 4)): first elevated and then declined
content of riboflavin in plasma, course ([3]; riboflavin group, low and medium dosage LRM groups (FIG. 4)): decline
urinary riboflavin excretion ([2]; day 15, high dosage (double of medium)): 217.9 ± 60.2 μg per rat per day
urinary riboflavin excretion ([2]; day 15, low dosage (half of medium)): 5.6 ± 1.3 μg per rat per day
urinary riboflavin excretion [2, 6]: 34.8 ± 12.2 μg per rat per day
urinary riboflavin excretion ([2]; day 30, high dosage (double of medium)): 9.8 ± 3.5 μg per rat per day
urinary riboflavin excretion ([2]; day 30, low dosage (half of medium)): 4.1 ± 0.8 μg per rat per day
urinary riboflavin excretion [2, 7]: 5.0 ± 1.2 μg per rat per day
urinary riboflavin excretion ([2]; day 60, high dosage (double of medium)): 9.9 ± 2.0 μg per rat per day
urinary riboflavin excretion ([2]; day 60, low dosage (half of medium)): 5.4 ± 1.3 μg per rat per day
urinary riboflavin excretion [2, 8]: 7.8 ± 1.3 μg per rat per day
urinary riboflavin excretion ([2]; day 90, high dosage (double of medium)): 5.9 ± 1.2 μg per rat per day
urinary riboflavin excretion ([2]; day 90, low dosage (half of medium)): 5.1 ± 0.9 μg per rat per day
urinary riboflavin excretion [2, 9]: 4.6 ± 1.1 μg per rat per day
Compound: CCCCCCCCCCCC(=O)OC[C@@H](O)[C@@H](O)[C@@H](O)Cn1c2nc(=O)[nH]c(=O)c-2nc2cc(C)c(C)cc21 [LRM, 5′-lauric acid monoester of riboflavin]
food-intake (low dosage LRM group, after 30 days): decreased
weight gain (medium and high dosage LRM groups): gained weight significantly
gain of body weight (medium dosage LRM group, at the end of the experiment (FIG. 2)): lower than that of the high dosage LRM group
food intake (medium dosage LRM group, in the last few days): decreased and was lower than that of the high dosage LRM group
food intake (the three LRM groups (FIG. 1)): higher than the riboflavin group and the riboflavin deficiency group
Occurrence (%) of oral ulcer ([4]; ALL, LRM treated before chemotherapy (150 mg i.m.)): 0%
Ulcer observed (times) ([4]; ALL, LRM treated before chemotherapy (150 mg i.m.), 18 chemotherapies): 0 times
Occurrence (%) of oral ulcer ([4]; ALL, LRM treated in recent 3 months): 7.1%
Ulcer observed (times) ([4]; ALL, LRM treated in recent 3 months, 42 chemotherapies): 3 times
Occurrence (%) of oral ulcer ([4]; ANLL, LRM treated before chemotherapy (150 mg i.m.)): 0%
Ulcer observed (times) ([4]; ANLL, LRM treated before chemotherapy (150 mg i.m.), 8 chemotherapies): 0 times
Occurrence (%) of oral ulcer ([4]; ANLL, LRM treated in 3 months): 12.5%
Ulcer observed (times) ([4]; ANLL, LRM treated in 3 months, 8 chemotherapies): 1 times
prevention of oral ulcer after chemotherapy ([4]; LRM treatment prior to chemotherapy): could effectively prevent the occurrence of oral ulcer after chemotherapy
incidence of oral ulcer ([4]; within 3 months after chemotherapy): could effectively decrease the incidence of oral ulcer
BGRAC, course and order of groups ([1]; low, medium and high dosage LRM groups (FIG. 3)): elevated, in the order as follows the low dosage LRM group>the medium dosage LRM group>the high dosage LRM group
release of free riboflavin in the body (Male wistar Rats): could slowly release free riboflavin and meet the demand of the body
riboflavin discharged in urine compared with riboflavin deficiency group ([2]; after 15 days, riboflavin group, low and medium dosage LRM groups): higher than that in the riboflavin deficiency group
urinary riboflavin excretion, course over time ([2]; high dosage LRM group): markedly increased at the 15th day and then rapidly decreased after the 30 days
cases that suffered oral ulcer [5]: 4 cases
share of cases that suffered oral ulcer [5]: 14.3%
